Results reported in US8410045B2, “Camptothecin-peptide conjugates and pharmaceutical compositions containing the same” (Drais Pharmaceuticals, Inc., priority 2006, dated 2013).
Entries after “also recorded” stand apart in the source; their conditions may differ. Where a name gives a salt, the structure may show the parent alone. Marks after values point to notes of the source that are not given here.

Assays:
[1] = In vitro cytotoxicity (WST-1 cell viability); assay type: cell-based, human; conditions: 1 h exposure + 48 h post-incubation; read-out: In vitro cytotoxicity IC50 (μM) NCI-H460
Procedure: Cytotoxic evaluation was performed by seeded cells for 24 h prior to the addition of the therapeutic compound. Cells were incubated for 48 h (37° C.) with different dilutions of the therapeutic compound. Cell viability was then assessed using the WST-1 assay (Roche). The results are expressed as mean cytotoxic concentrations (IC50 value or molar concentration that inhibits 50% of cell viability) that were estimated from sigmoid regression, using Graph Pad Prism 3.02 software.
NCI-H460 (ATCC#: HTB-177): human epithelial lung carcinoma cells. Cells were cultured in RPMI 1640+glutamax and 10% of fetal bovine serum. Cells were plated at a density of 10,000 cells/well in 96-well plates.

NCI-H460 lung carcinoma = test: Antitumor efficacy in NCI-H460 lung carcinoma model in nude mice; conditions: Table 9, 25 μmol/kg
[2] = system: HCT 116 human colorectal carcinoma tumor
[3] = Toxicity study in the beagle dog following intravenous infusion; conditions: dog, 30 mg/kg
Procedure: Adult female and male beagle dogs were individually housed with free access to tap water. A pellet diet was distributed daily.
Dogs (1 dog for each drug and dose) were infused intravenously through the cephalic or saphenous vein. These intravenous infusions were made using a single-use catheter (Intraflon®) and a plastic syringe connected to a syringe pump. During the injection, the animals were restrained in a hammock.
Conjugates were dissolved in water for injection (10% of final volume) and diluted with 0.9% NaCl to their final concentration. The volume administered to each animal was adjusted according to body weight.
Clinical signs, hematological and intestinal toxicities were monitored during a period of 15 days after infusion. Each animal was checked at least twice a day for mortality or signs of morbidity.
The body weight of each animal was recorded on the day −1, 4, 10 and 13.
Peripheral blood samples were taken into EDTA tubes for the determination of following parameters on days −1, 5, 11 and 14: erythrocytes, hemoglobin, mean cell volume, packed cell volume, mean cell hemoglobin concentration, mean cell hemoglobin, thrombocytes, leucocytes, differential white cell count with cell morphology.

[4] = dog; F. Lavelle et al., Seminar in Oncology (1996); cited from earlier work
physchem = conditions: water
[5] = M. Horikawa, Pharmaceutical Res. 2002; cited from earlier work

SMILES | IC50 [1] [µM] | In vivo efficacy Optimal T/C % (NCI-H460 lung carcinoma) [%] | In vivo efficacy TGI % (NCI-H460 lung carcinoma) [%] | In vivo efficacy Optimal T/C % (NCI-H460 lung carcinoma; listed as DPV1047-BCH-SN38.HCl) [%] | TGI (100-T/C %) ([2]; Table 5, Q1D5, 18 (cumulative 90) μmol/kg) | Minimal T/C (%) ([2]; iv) | body weight loss ([3]; 20 min infusion) [%] | white blood cells depletion ([3]; Day 5) [%] | Reduction in WBC at D5 (%) ([3]; i.v. infusion) | Toxic signs Day 1 ([3]; i.v. infusion) | Toxic signs Following Days ([3]; i.v. infusion) | Maximal Tolerated Dose (MTD) [4] [mg/kg] | solubility (physchem) [µg/mL] | excreted into bile [5] [%]
CCc1c2c(nc3ccc(OC(=O)[C@H]4CC[C@H](CNC(=O)C5CCC(CN6C(=O)CC(SC[C@H](N)C(=O)N[C@H](C(=O)N[C@@H](CCCCN)C(=O)N[C@@H](CCCNC(=N)N)C(=O)NCC(=O)N[C@@H](CC(C)C)C(=O)N[C@@H](CCCCN)C(=O)N[C@@H](CC(C)C)C(=O)N[C@@H](CCCNC(=N)N)C(=O)N[C@@H](Cc7c[nH]cn7)C(=O)N[C@H](C(=O)N[C@@H](CCCNC(=N)N)C(=O)N7CCC[C@H]7C(=O)N[C@@H](CCCNC(=N)N)C(=O)N[C@H](C(=O)N[C@H](C(=O)N[C@@H](CCCNC(=N)N)C(=O)N[C@@H](CCSC)C(=O)N[C@@H](CC(=O)O)C(=O)N[C@H](C(=O)O)C(C)C)[C@@H](C)O)C(C)C)C(C)C)C(C)C)C6=O)CC5)CC4)cc13)-c1cc3c(c(=O)n1C2)COC(=O)[C@]3(O)CC (single isomer, unassigned) [DPV1047-BCH-SN38•HCl] | 173 | 22.9 | 77.1 | 18.4 | – | – | – | – | – | – | – | – | – | –
CCc1c2c(nc3ccc(OC(=O)N4CCC(N5CCCCC5)CC4)cc13)-c1cc3c(c(=O)n1C2)COC(=O)[C@]3(O)CC [irinotecan, reference compound] | – | – | – | – | 90*** % | 10 | −8.5 | 92 | −92 | Ptyalism; also recorded: Liquid feces; also recorded: Vomit; also recorded: Loss of balance; also recorded: Tremors (marked) | Vomit: D4 | 30 | ≤ 2500 | > 26
